By inhibition is commonly meant how much of the control response was suppressed.

Common to all, as to assay: Upstate KinaseProfiler radio-enzymatic filter binding assay
Format in all cases: biochemical

The target in assay [1] is T1, lck (Homo sapiens, UniProt P06239).
T1 construct: purchased Upstate
To be noted: at a concentration of 10 μM; read-out: percentage inhibition of lck. The procedure: (§1) Compounds of the invention are assessed for their ability to inhibit individual members of the kinase panel. The compounds are tested in duplicates at a final concentration of 10 μM following this generic protocol. Note that the kinase buffer composition and the substrates vary for the different kinases included in the “Upstate KinaseProfiler™” panel. Kinase buffer (2.5 μL, 10×—containing MnCl2 when required), active kinase (0.001-0.01 Units; 2.5 μL), specific or Poly(Glu4-Tyr) peptide (5-500 μM or 0.01 mg/ml) in kinase buffer and kinase buffer (50 μM; 5 μL) are mixed in an eppendorf on ice, A Mg/ATP mix (10 μL; 67.5 (or 33.75) mM MgCl2, 450 (or 225) μM ATP and 1 μCi/μl [γ-^32P]-ATP (3000 Ci/mmol)) is added and the reaction is incubated at about 30° C. for about 10 minutes. The reaction mixture is spotted (20 μL) onto a 2 cm×2 cm P81 (phosphocellulose, for positively charged peptide substrates) or Whatman No. 1 (for Poly (Glu4-Tyr) peptide substrate) paper square. The assay squares are washed 4 times, for 5 minutes each, with 0.75% phosphoric acid and washed once with acetone for 5 minutes. The assay squares are transferred to a scintillation vial, 5 ml scintillation cocktail are added and ^32P incorporation (cpm) to the peptide substrate is quantified with a Beckman scintillation counter. Percentage inhibition is calculated for each reaction.

Assay [2] addresses T2, SAPK2β (Homo sapiens, UniProt Q15759).
T2 construct: purchased Upstate
To be noted: at a concentration of 10 μM; read-out: percentage inhibition of SAPK2β. The procedure:
as §1

In assay [3] the target is T3, wild-type Abl (Homo sapiens, UniProt P00519).
T3 construct: purchased Upstate
To be noted: at a concentration of 10 μM; read-out: percentage inhibition of wild-type Abl. How it is done:
as §1

Assay [4] deals with T4, c-RAF (Homo sapiens, UniProt P04049).
T4 construct: purchased Upstate
T4 sequence (P04049 whole entry): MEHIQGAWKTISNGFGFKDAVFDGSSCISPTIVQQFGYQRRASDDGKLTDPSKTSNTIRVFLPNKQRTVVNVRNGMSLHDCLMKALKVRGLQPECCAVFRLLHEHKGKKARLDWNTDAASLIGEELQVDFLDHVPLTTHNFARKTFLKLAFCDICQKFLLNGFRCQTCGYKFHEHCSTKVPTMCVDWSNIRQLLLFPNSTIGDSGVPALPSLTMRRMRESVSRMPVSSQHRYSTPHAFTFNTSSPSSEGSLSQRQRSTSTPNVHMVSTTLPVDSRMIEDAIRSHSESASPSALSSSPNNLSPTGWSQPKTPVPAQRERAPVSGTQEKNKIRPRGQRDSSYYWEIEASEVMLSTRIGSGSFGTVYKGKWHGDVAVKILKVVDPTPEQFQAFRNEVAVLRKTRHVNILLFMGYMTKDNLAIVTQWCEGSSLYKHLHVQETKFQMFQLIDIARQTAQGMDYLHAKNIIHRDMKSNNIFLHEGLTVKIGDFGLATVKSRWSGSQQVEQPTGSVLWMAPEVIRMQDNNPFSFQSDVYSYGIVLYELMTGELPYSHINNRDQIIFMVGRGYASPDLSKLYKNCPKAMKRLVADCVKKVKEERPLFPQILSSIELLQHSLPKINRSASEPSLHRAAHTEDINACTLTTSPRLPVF
To be noted: at a concentration of 10 μM; read-out: percentage inhibition of c-RAF. How it is done:
as §1

Assay [5] addresses T5, c-SRC (Homo sapiens, UniProt P12931).
T5 construct: purchased Upstate
To be noted: at a concentration of 10 μM; read-out: percentage inhibition of c-SRC. How it is done: as §1

For assay [6], the target named is T6, SAPK2α (Homo sapiens, UniProt Q16539).
T6 construct: purchased Upstate
T6 sequence (Q16539 whole entry): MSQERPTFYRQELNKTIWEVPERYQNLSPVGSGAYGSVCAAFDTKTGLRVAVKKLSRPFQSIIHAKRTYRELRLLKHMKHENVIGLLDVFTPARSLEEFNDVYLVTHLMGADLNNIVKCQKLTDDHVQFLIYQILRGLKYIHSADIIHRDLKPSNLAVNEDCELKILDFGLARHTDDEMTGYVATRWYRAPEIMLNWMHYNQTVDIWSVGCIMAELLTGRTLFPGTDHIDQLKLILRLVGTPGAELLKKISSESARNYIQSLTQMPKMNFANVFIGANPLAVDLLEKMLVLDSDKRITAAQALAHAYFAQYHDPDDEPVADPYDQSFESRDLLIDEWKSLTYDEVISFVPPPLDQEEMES
To be noted: at a concentration of 10 μM; read-out: percentage inhibition of SAPK2α. How it is done:
as §1

In assay [7] the target is T7, Tie2 (Homo sapiens, UniProt Q02763).
T7 construct: purchased Upstate
T7 sequence (Q02763 23-1124): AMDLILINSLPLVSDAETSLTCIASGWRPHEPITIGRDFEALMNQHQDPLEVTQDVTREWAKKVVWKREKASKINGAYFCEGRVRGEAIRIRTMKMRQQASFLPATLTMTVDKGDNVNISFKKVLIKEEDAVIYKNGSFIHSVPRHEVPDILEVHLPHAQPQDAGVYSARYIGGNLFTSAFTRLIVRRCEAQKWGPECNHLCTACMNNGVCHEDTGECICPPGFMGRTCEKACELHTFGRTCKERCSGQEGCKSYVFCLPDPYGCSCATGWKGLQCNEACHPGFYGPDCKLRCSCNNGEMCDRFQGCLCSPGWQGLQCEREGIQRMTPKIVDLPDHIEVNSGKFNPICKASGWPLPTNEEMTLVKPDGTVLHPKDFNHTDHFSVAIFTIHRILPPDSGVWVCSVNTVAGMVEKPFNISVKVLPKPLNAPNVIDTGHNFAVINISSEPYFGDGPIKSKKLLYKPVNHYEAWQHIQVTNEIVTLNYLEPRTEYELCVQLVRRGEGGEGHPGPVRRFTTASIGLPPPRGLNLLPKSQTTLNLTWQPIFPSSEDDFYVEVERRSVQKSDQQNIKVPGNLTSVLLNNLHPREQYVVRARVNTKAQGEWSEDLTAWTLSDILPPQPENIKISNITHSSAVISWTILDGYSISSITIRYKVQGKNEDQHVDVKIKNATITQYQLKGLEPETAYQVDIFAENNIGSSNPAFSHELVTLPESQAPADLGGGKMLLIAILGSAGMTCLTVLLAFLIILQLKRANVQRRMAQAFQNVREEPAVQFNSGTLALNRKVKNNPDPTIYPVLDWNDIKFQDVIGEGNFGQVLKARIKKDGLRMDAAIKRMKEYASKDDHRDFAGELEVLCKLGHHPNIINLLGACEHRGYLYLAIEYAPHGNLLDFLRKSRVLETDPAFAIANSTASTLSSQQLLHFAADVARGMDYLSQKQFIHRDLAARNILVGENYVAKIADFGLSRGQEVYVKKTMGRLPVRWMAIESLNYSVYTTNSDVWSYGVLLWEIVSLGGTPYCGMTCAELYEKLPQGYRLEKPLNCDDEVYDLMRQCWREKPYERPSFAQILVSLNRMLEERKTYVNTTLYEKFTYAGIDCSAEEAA
To be noted: at a concentration of 10 μM; read-out: percentage inhibition of Tie2. The procedure:
as §1

Assay [8] addresses T8, PDGFRα (Homo sapiens, UniProt P16234).
T8 construct: purchased Upstate
To be noted: at a concentration of 10 μM; read-out: percentage inhibition of PDGFRα. The procedure:
as §1

The target in assay [9] is T9, MKK6 (Homo sapiens, UniProt P52564).
T9 construct: purchased Upstate
T9 sequence (P52564 1-334): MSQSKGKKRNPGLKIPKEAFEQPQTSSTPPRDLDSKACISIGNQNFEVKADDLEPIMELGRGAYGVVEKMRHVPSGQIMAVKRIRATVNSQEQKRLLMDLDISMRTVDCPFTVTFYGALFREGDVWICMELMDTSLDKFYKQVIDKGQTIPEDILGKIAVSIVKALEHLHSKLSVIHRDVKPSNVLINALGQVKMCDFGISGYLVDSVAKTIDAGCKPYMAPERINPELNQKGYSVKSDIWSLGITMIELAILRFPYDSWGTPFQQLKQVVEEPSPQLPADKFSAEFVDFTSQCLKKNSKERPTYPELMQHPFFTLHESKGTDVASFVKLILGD
To be noted: at a concentration of 10 μM; read-out: percentage inhibition of MKK6. How it is done: as §1

For assay [10], the target named is T10, TrkB (Homo sapiens, UniProt Q16620).
T10 construct: purchased Upstate
To be noted: at a concentration of 10 μM; read-out: percentage inhibition of TrkB. The procedure:
as §1

In assay [11] the target is T11, JNK2α2 (Homo sapiens, UniProt P45984).
T11 construct: purchased Upstate
T11 sequence (P45984 whole entry): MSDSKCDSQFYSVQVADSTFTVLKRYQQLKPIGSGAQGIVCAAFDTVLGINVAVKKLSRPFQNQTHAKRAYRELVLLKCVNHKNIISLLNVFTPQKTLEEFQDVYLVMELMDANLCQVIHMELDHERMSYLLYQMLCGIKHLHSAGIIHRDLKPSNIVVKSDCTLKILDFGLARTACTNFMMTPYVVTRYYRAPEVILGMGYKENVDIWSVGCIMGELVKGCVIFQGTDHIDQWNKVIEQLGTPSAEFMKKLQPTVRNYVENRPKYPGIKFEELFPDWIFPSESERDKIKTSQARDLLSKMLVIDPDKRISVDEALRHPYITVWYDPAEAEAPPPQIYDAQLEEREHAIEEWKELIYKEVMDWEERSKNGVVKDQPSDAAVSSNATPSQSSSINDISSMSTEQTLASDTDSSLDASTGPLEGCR
To be noted: at a concentration of 10 μM; read-out: percentage inhibition of JNK2α2. How it is done: as §1

T2 sequence (Q15759 whole entry): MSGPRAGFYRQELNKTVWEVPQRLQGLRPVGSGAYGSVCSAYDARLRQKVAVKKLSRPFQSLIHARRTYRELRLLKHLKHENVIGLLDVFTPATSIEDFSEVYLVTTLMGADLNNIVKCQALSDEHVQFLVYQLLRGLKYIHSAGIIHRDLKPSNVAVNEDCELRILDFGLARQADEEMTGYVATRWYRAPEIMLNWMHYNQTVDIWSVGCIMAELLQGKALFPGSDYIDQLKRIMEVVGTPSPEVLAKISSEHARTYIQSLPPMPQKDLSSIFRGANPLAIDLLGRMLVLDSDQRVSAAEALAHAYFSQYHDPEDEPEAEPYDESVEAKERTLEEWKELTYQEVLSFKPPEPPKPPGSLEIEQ
T5 sequence (P12931 whole entry): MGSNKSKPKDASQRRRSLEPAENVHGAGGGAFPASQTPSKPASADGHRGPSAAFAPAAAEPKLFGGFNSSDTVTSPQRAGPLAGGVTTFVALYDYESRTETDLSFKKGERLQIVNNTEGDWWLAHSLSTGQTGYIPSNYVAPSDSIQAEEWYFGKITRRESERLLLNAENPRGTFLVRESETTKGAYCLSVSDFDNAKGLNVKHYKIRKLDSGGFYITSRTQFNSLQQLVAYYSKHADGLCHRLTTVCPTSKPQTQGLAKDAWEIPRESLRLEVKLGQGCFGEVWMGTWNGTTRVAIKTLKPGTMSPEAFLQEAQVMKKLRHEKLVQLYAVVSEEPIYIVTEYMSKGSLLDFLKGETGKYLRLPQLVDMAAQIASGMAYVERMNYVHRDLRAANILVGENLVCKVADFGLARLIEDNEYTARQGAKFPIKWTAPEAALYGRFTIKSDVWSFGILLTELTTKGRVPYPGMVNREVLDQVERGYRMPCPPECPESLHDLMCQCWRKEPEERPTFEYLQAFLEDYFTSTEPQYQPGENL
T8 sequence (P16234 24-1089): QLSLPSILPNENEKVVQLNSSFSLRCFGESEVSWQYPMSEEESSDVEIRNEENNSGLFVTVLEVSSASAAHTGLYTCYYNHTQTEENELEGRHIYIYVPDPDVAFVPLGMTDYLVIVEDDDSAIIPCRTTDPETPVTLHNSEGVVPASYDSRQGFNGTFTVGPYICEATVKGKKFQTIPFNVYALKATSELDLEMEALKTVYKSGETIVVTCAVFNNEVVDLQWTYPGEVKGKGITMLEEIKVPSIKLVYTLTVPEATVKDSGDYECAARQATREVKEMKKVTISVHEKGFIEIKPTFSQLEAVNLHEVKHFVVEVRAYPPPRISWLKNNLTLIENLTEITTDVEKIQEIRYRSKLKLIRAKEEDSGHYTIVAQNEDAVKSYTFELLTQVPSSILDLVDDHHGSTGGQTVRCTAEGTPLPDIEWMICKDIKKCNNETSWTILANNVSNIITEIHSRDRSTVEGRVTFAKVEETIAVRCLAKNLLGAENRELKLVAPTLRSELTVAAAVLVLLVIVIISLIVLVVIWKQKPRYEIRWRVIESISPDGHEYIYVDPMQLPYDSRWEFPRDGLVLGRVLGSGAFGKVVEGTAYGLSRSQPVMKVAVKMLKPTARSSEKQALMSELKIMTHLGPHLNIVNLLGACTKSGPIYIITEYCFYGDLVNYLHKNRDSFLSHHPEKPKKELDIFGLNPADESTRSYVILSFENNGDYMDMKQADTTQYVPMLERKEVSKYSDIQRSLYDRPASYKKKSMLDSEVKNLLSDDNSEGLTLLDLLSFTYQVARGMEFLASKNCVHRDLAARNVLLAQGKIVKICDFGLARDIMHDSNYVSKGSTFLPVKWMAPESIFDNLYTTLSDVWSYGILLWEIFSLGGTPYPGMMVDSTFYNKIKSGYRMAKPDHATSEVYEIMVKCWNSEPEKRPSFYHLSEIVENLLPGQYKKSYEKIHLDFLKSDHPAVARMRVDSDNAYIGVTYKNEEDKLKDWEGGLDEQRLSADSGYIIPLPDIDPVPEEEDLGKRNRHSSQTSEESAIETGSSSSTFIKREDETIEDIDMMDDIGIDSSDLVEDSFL
T1 sequence (P06239 whole entry): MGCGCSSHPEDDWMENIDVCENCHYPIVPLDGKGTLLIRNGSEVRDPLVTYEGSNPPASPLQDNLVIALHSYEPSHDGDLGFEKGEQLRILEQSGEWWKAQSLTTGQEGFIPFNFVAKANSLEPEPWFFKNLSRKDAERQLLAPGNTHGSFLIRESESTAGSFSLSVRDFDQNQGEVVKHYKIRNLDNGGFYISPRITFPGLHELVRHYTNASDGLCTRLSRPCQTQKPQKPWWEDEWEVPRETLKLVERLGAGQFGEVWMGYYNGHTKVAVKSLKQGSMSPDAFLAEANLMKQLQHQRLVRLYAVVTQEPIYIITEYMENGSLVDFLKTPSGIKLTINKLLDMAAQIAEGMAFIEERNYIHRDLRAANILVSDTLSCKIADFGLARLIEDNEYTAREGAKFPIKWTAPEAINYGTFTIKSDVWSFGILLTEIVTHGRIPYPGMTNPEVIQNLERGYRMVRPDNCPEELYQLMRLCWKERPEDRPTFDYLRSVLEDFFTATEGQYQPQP

On to `Cc1ccc(NC(=O)c2cccc(C(F)(F)F)c2)cc1Nc1nccn1-c1cc(NCCN2CCOCC2)ncn1` [Compound 3, N-(4-Methyl-3-{1-[6-(2-morpholin-4-yl-ethylamino)-pyrimidin-4-yl]-1H-imidazol-2-ylamino}-phenyl)-3-trifluoromethyl-benzamide], for which the inhibition at 10 µM stood at 100% in assay [1]; 100% in assay [2]; 97% in [3]; 100% in [4]; 99% in assay [5]; 100% in assay [6]. In addition, the inhibition at 10 µM is 99% in assay [7]; 97% in [8]; 100% in assay [9]; 97% in [10]; 97% in assay [11].
